Consider 6 compounds from patent US9974801B2, “Methods of treating and preventing diseases and disorders of the central nervous system” (The United States of America, as represented by the …, priority 2012, dated 2018).

The subject of data set [1] is phagocytic microglia (jellyfish morphology). The experiment in a line: Phagocytic (jellyfish) microglia after meningeal compression injury, 2P microscopy. Format: in vivo, heterozygous CX3CR1-GFP mice. The note with it: p<0.05; for percentage of phagocytic (jellyfish) microglia in the imaging field: antagonist in aCSF applied to skull bone 30 min prior to injury, quantified 3 hrs post-injury, vs vehicle, FIG. 3. On the procedure:
(§1) Skull Thinning & Compression Injury. For imaging experiments, mice were anesthetized with ketamine (85 mg/kg), xylazine (13 mg/kg), and acepromazine (2 mg/kg) in PBS and maintained at a core temperature of 37° C. The skull bone over the barrel cortex was then thinned to a thickness of ˜30-40 μm as described (PMID: 20134419). For this procedure, the bone was manually thinned over a 30 minute period, and the amount of downward pressure was kept to a minimum. To induce a compression injury, the skull was thinned within 5 min to a thickness of ˜10-15 μm. Once thinned, the blunt of a surgical instrument was used to gently press the pliable skull bone downward. […] In one set of experiments, the skull bone was intentionally cracked to induce a severe injury. Imaging was performed immediately after injury.
Intravital two-photon laser scanning microscopy. Mice with a normally thinned or compressed skull bone were imaged using a Leica SP5 two-photon imaging system (Leica Microsystems, Bannockburn, Ill.) equipped with an 8000 Hz resonant scanner, a 20×/1.0 NA dipping objective, and two Mai Tai HP DeepSee Lasers (SpectraPhysics) tuned to 905, 920 or 970 nm. Fluorescence emission was separated by high efficiency custom dichroic mirrors (Semrock) and collected with a NDD4 external detector (Leica). Stacks of images were acquired using a step size of 1.0 μm to a depth of 150 μm. Time lapse movies were acquired with 1 min intervals between 3D stacks. For all imaging studies, the 20× lens was submerged directly into artificial cerebral spinal fluid (aCSF; 119 mM NaCl, 26.2 mM NaHCO3, 2.5 mm KCl, 1 mM NaH2PO4, 1.3 mM MgCl2, 1.2 mM CaCl2, 0.4% glucose, pH 7.4) placed atop the thinned skull.
Purinergic receptor, connexin hemichannel, and ROS antagonism. Prior to skull thinning, antagonists diluted in aCSF were applied directly to the skull bone, and vehicle was simultaneously applied to the opposite hemisphere to serve as a control. […] Vehicle and purinergic receptor antagonists were applied as a 3 mm diameter bubble on the skull surface and replenished as needed over a 30 min incubation period to prevent drying. This allowed the antagonists to continuously pass through the skull bone. Following the 30 min incubation, the skull was dried and then thinned to induce a compression injury over both hemispheres. Imaging was initiated immediately after injury. For most studies, the skull bone pre-incubated with antagonists was imaged continuously for 3-10 hrs, after which a 3D stack was captured from both the vehicle and antagonist treated areas for quantitative purposes. […] A similar study was conducted using 10 mM CBX.
Image Analysis. All quantitative analyses and processing of 3D/4D imaging data were performed using Imaris 7.0 software (Bitplane). Supplemental movies were constructed and annotated using Adobe Premiere Pro CS4. Microglia “honeycomb” reactions were quantified from 434×434×150 μm (xyz) 3D image stacks obtained at selected time points in CX3CR1^gfp/+ mice. This was accomplished by measuring the total length of microglial processes in contact with the glial limitans. […] Afterward, 10 microglia per mouse were randomly selected for quantification of process length. Only cells with all of their processes in the field of view and no more than 50 μm beneath the skull bone were quantified. Microglial processes that were touching (flat against) the glial limitans were labeled and measured using the Imaris “filaments” tool. […]

Data set [2] relates to microglia processes associated with the glial limitans. The experiment in a line: Length of microglial processes in contact with the glial limitans after meningeal compression injury. The class given is in vivo, mice. The note with it: for length of microglial processes in contact with the glial limitans: transcranial administration of antagonist before injury, three hours following injury, p<0.05, FIG. 4. As to the method:
as §1
(§2) Intravital two-photon laser scanning microscopy. […] Fluorescence emission was separated by high efficiency custom dichroic mirrors (Semrock) and collected with a NDD4 external detector (Leica). […]
(§3) Purinergic receptor, connexin hemichannel, and ROS antagonism. […] For most studies, the skull bone pre-incubated with antagonists was imaged continuously for 3-10 hrs, after which a 3D stack was captured from both the vehicle and antagonist treated areas for quantitative purposes. […]
Image Analysis. All quantitative analyses and processing of 3D/4D imaging data were performed using Imaris 7.0 software (Bitplane). […] Microglia “honeycomb” reactions were quantified from 434×434×150 μm (xyz) 3D image stacks obtained at selected time points in CX3CR1^gfp/+ mice. […] Afterward, 10 microglia per mouse were randomly selected for quantification of process length. Only cells with all of their processes in the field of view and no more than 50 μm beneath the skull bone were quantified. Microglial processes that were touching (flat against) the glial limitans were labeled and measured using the Imaris “filaments” tool. […]

Data set [3] can be described thus: Skull bone permeability analysis (transcranial permeation of fluorescent probes). Format: in vivo, mice. The note with it: applied to intact skull bone as 3 mm bubble; 2P microscopy immediately after loading; FIG. 2. On the procedure:
Skull bone permeability analysis. For skull bone permeability studies, the following rhodamine-labeled dextrans were placed directly on the intact skull bone for up to 30 min: 3,000 MW (25 mM), 10,000 MW (5 mM), 40,000 MW (1 mM), and 70,000 MW (0.5 mM). SR101 (1 mM), a sulforhodamine dye, was used as a representative of 600 MW compound. Compounds were replenished as needed to prevent drying. Following the incubation period, the skull bone was quickly thinned and imaged. A 3D stack was captured to determine if the fluorescence could be found beneath the skull bone.
This example illustrates the effect of molecular weight of the compounds on the rate of transcranial permeation. To define the time and size of compounds that pass directly through the intact (non-thinned) skull, […] SR101 (600 MW) or different sized rhodamine-dextrans (25 mM 3,000 MW; 5 mM 10,000 MW; 1 mM 40,000 MW; 0.5 mM 70,000 MW) were applied to the skull bone. A 3 mm diameter bubble was left on the skull surface for the amount of time noted in minutes on the y axis of the table above. Because all compounds fluoresced, 2P microscopy was performed immediately after transcranial loading to determine if the compounds were present in the subarachnoid space.

Data set [4] has as its system neutrophils. The experiment in a line: Neutrophil recruitment following meningeal compression injury. The class given is in vivo, LysM-GFP transgenic reporter mouse. The note with it: p<0.05. On the procedure: Skull Thinning & Compression Injury. For imaging experiments, mice were anesthetized with ketamine (85 mg/kg), xylazine (13 mg/kg), and acepromazine (2 mg/kg) in PBS and maintained at a core temperature of 37° C. The skull bone over the barrel cortex was then thinned to a thickness of ˜30-40 μm as described (PMID: 20134419). For this procedure, the bone was manually thinned over a 30 minute period, and the amount of downward pressure was kept to a minimum. To induce a compression injury, the skull was thinned within 5 min to a thickness of ˜10-15 μm. Once thinned, the blunt of a surgical instrument was used to gently press the pliable skull bone downward. […]
as §2, §3
Image Analysis. All quantitative analyses and processing of 3D/4D imaging data were performed using Imaris 7.0 software (Bitplane). […] Afterward, 10 microglia per mouse were randomly selected for quantification of process length. […]

Regarding `S=C=Nc1cccc(NC(=S)NCCCCNC(=S)Nc2cccc(N=C=S)c2)c1` [MRS2578], the “percentage of phagocytic (jellyfish) microglia in the imaging field” value (shortened to “percentage of phagocytic”) in data set [1] is “significantly reduced”.

Regarding `CSc1nc(N)c2ncn([C@@H]3O[C@H](COP(=O)(O)O)[C@@H](O)[C@H]3O)c2n1` [MeSAMP], in data set [1], the “percentage of phagocytic” value was “significantly reduced”. Besides, in data set [2], the “length of microglial processes in contact with the glial limitans” value is on record as “significantly reduced”.

Consider `O=S(=O)([O-])c1cc(S(=O)(=O)O)ccc1C1=c2cc3c4c(c2Oc2c1cc1c5c2CCCN5CCC1)CCC[N+]=4CCC3` [SR101], for which the “rate of passage through the skull into the subarachnoid space” value in data set [3] is given as “pass through the skull more quickly than larger compounds”.

Take `N[C@@H](CCC(=O)N[C@@H](CS)C(=O)NCC(=O)O)C(=O)O` [glutathione]: in data set [1] (pretreatment with 100 mM, transcranial, FIG. 9), the “formation of phagocytic (jellyfish) microglia following injury” value is “eliminated the formation”. Moreover, in data set [2] (pretreatment with 100 mM, transcranial, FIG. 10), the “microglia extending their processes and contacting the glial limitans” value is on record as “completely prevented”. Moreover, the “recruitment of neutrophils following compression injury” value in data set [4] (pretreatment with 100 mM, transcranial, FIG. 8) is given as “significantly reduced”.

On to `Nc1ncnc2c1ncn2[C@@H](C=O)O[C@@H](C=O)COP(=O)(O)OP(=O)(O)OP(=O)(O)O` [oxidized ATP], for which the “percentage of phagocytic” value in data set [1] is reported as “not”. For the same compound, the “neutrophil recruitment to the injury site” value in data set [4] (transcranial P2X7 antagonist applied to skull before injury, FIG. 5) is listed as “completely blocked”.

In the case of “trinitrophenyl-ATP hydrate [TNP-ATP hydrate]”, the “percentage of phagocytic” value in data set [1] is recorded as “significantly reduced”. In addition, in data set [2], the “length of microglial processes in contact with the glial limitans” value is recorded as “significantly reduced”.
